Data as given in patent US20260088124A1, “TRANSCRIPTOMIC CLOCKS OF BIOLOGICAL AGE AND LIFESPAN” (The Brigham and Women's Hospital, Inc., priority 2022, published 2026).

Tests used:
[1] = tested on: 25-month-old C57BL/6JNia mice; experiment: Survival study of old mice with compound added to the diet; format: in vivo, mouse; settings: compound added to diet from 25 months of age; log-rank p-value <0.05; FIGS. 6F-H
young UM-HET3 male mice = experiment: Transcriptomic clock of expected maximum lifespan applied to liver and kidney of mice given compounds for 1 month; format: in vivo, mouse; settings: 1 month treatment, data pooled across tissues, adjusted p-value <0.05, FIG. 6E
From the text: To examine if longevity of rodents can be predicted based on gene expression data, we used 1,030 liver samples of mice and rats with known maximum lifespan to construct transcriptomic clock of expected lifespan.
To test if the constructed clock can be used to identify new longevity interventions, we applied it to the liver and kidney samples obtained from young UM-HET3 male mice subjected to 25 different compounds for 1 month together with age-matched controls. These compounds were chosen using a CMAP platform^30 and gene expression signatures of longevity identified in our previous studies^31.

mouse tissues = experiment: Change of biological age (tAge), lifespan-adjusted multi-tissue transcriptomic clock applied to RNAseq datasets of treated mice (ClockBase); format: in vivo; settings: for effect on biological age (tAge) versus age-matched control mice: statistically significant effect on tAge, FIG. 6A
From the text: Preprocessing of the data prior to applying the clock included filtering of low-expressed genes using soft threshold (genes with less than 5 reads in more than 80% of samples were removed), mapping of gene IDs to the mouse Entrez IDs, RLE normalization (for RNA-seq data), log-transformation, scaling and ranking/YuGene transformation (optionally, for the corresponding clock models). Missing values corresponding to the clock genes not detected in the data were imputed with the average values precalculated during the training of the clock model.
Preprocessed gene expression profiles were used as an input for the clock, and tAges were returned by the model as an output. Differences between tAges of control and treated groups were assessed using linear regression model (for OSKM reprogramming datasets) and independent t-tests (for other applications). When multiple comparisons were assessed, obtained p-values were adjusted with Benjamini-Hochberg method.
To discover candidate interventions that slow down biological aging and extend mammalian lifespan and healthspan, we utilized ClockBase^25 and processed 1,349 publicly available RNAseq datasets corresponding to mouse tissues exposed to various pharmacological, dietary and genetic interventions. For every intervention, we used gene expression data to calculate tAges of subjected mice and compared them with tAges of age-matched control mice. […] In addition to the well-known lifespan-extending interventions, such as rapamycin, they included β3-adrenoceptor agonist CL 316,243^26,27 and the cardiac glycoside ouabain^28.

30-month-old mice = experiment: Healthspan of old mice (gait speed, frailty index); format: in vivo, mouse
aged rodents = settings: cited from earlier work
[2] = cited from earlier work

Compound | predicted effect on expected (maximum) lifespan according to the transcriptomic longevity clock (young UM-HET3 male mice) | effect on biological age (tAge) versus age-matched control mice (mouse tissues) | other results
COc1ccc(-c2ccc3c(N4CCOC[C@@H]4C)nc(N4CCOC[C@@H]4C)nc3n2)cc1CO [AZD-8055] | predicted to be beneficial for mouse longevity |  | lifespan of old male mice (survival) [1]: significantly extended lifespan
C[C@H](Cc1ccc2c(c1)OC(C(=O)[O-])(C(=O)[O-])O2)NC[C@H](O)c1cccc(Cl)c1.[Na+].[Na+] [CL 316,243] |  | decrease in biological age | 
COc1ccc(-c2ccc3c(N4CCOCC4)nc(N4C[C@@H](C)O[C@@H](C)C4)nc3n2)cc1CO [KU-0063794] | predicted to be beneficial for mouse longevity |  | frailty index (30-month-old mice): decreased; gait speed (30-month-old mice): improved; lifespan of old male mice (survival) [1]: significantly extended lifespan
CCCCCCCCCCCCCCCC(=O)OC[C@H](O)[C@H]1OC(=O)C(O)=C1O [ascorbyl-palmitate] | predicted to be beneficial for mouse longevity |  | 
C[C@@H]1O[C@@H](O[C@H]2C[C@@H](O)[C@]3(CO)[C@H]4[C@H](O)C[C@]5(C)[C@@H](C6=CC(=O)OC6)CC[C@]5(O)[C@@H]4CC[C@]3(O)C2)[C@H](O)[C@H](O)[C@H]1O [ouabain] |  | decrease in biological age | physical function of aged rodents (aged rodents): improve physical function; senolytic activity [2]: exhibit senolytic activity; reduction of biological age (mouse tissues; 3-month treatment, 24-month-old mice, liver, FIG. 6B): ~20%
Cc1onc(-c2ccccc2)c1-c1ccc(S(N)(=O)=O)cc1 [valdecoxib] | predicted to be beneficial for mouse longevity |  | 
interleukin 6: interleukin 6 injection |  | increase of biological age | 
